Results on 23 compounds are retold here after ChEMBL document CHEMBL4699440, “Comprehensive review on the anti-bacterial activity of 1,2,3-triazole hybrids” (Eur J Med Chem, 2019).

One assay relates to Escherichia coli. In words: Antibacterial activity against Escherichia coli assessed as inhibition zone at 1 mg/ml measured after overnight incubation by disc diffusion method. The format is functional. To be noted: read-out: IZ.
The next assay has as its system Bacillus subtilis. As to the kind of experiment: Antibacterial activity against Bacillus subtilis assessed as inhibition zone at 1 mg/ml measured after overnight incubation by disc diffusion method. The format is functional. To be noted: read-out: IZ.
Assay [1] relates to Staphylococcus aureus. As to the kind of experiment: Antibacterial activity against Staphylococcus aureus assessed as inhibition zone at 1 mg/ml measured after overnight incubation by disc diffusion method. It counts as functional. The settings on record: read-out: IZ.
In another assay the test system is Pseudomonas aeruginosa. In words: Antibacterial activity against Pseudomonas aeruginosa assessed as inhibition zone at 1 mg/ml measured after overnight incubation by disc diffusion method. To be noted: read-out: IZ. The format is functional.
Assay [2] relates to Staphylococcus aureus. As to the kind of experiment: Antibacterial activity against Staphylococcus aureus. The format is functional.
The next assay has as its system Bacillus cereus. As to the kind of experiment: Antibacterial activity against Bacillus cereus. The format is functional.
Another assay deals with KB. In words: Cytotoxicity against human KB cells. It counts as cell-based. To be noted: Homo sapiens, KB.

Converted amounts (≈) assume the structure as drawn. Numbered stars: 1 amine (or outer) side, 2 acyl side, 3 side chain; on linkers, the order of the positions; unused ones are H or OH. Square brackets hold non-standard residues; d marks the D form. Peptide text beside a SMILES is read from it. * marks the point of attachment. X1 = CC(C)(C(=O)c1ccc(C(F)(F)F)cc1)C(=O)*; βPro(3R) = O=C([C@@H]1CCN([*:1])C1)[*:2]; Phe(ol) = N[C@H](CO)Cc1ccccc1; Aib = CC(C)(N)C(=O)O

Turning to `c1ccc(-c2nnc(-c3ccccc3NCc3cn(-c4ccccc4)nn3)o2)cc1`, the zone of inhibition at 1000 µg/mL in the assay on Escherichia coli, in the assay on Bacillus subtilis, in the assay on Staphylococcus aureus [1] and in the assay on Pseudomonas aeruginosa was 2.5 mm each time.
As to `c1ccc(-c2nnc(-c3ccccc3NCc3cn(C4CCCCC4)nn3)o2)cc1`, the zone of inhibition at 1000 µg/mL in the assay with Escherichia coli, in the assay with Bacillus subtilis, in the assay on Staphylococcus aureus [1] and with Pseudomonas aeruginosa was 2.5 mm in each case.
Regarding `CC(C)C[C@H](NC(=O)CNC(=O)C(C)(C)NC(=O)[C@@H](NC(=O)C(C)(C)NC(=O)[C@H](CCC(N)=O)NC(=O)[C@H](C)NC(=O)C(C)(C)NC(=O)[C@H](C)NC(=O)C(C)(C)NC(=O)[C@@H]1CCN(C(=O)C(C)(C)n2cc(-c3ccc(F)c(F)c3)nn2)C1)C(C)C)C(=O)NC(C)(C)C(=O)N1CCC[C@@H]1C(=O)N[C@H](C(=O)NC(C)(C)C(=O)NC(C)(C)C(=O)N[C@@H](CCC(N)=O)C(=O)N[C@@H](CCC(N)=O)C(=O)N[C@H](CO)Cc1ccccc1)C(C)C`, the MIC against Staphylococcus aureus [2] and against Bacillus cereus was 1.56 µg/mL (≈ 0.748 µM) each time. The compound also yielded a half-maximal inhibitory concentration (IC50) in the assay with KB of 2.9 µg/mL (≈ 1.39 µM).
For the compound `COc1ccccc1-n1cc(CNc2ccccc2-c2nnc(-c3ccccc3)o2)nn1`, the zone of inhibition at 1000 µg/mL in the assay with Escherichia coli, in the assay on Bacillus subtilis, with Staphylococcus aureus [1] and in the assay with Pseudomonas aeruginosa was 2.5 mm each time.
As for `Cc1ccccc1-n1cc(CNc2ccccc2-c2nnc(-c3ccccc3)o2)nn1`, the zone of inhibition at 1000 µg/mL in the assay with Escherichia coli, in the assay on Bacillus subtilis, with Staphylococcus aureus [1] and in the assay on Pseudomonas aeruginosa was 2.5 mm in each case.
With `Clc1cccc(-n2cc(CNc3ccccc3-c3nnc(-c4ccccc4)o3)nn2)c1`, the zone of inhibition at 1000 µg/mL in the assay with Escherichia coli, with Bacillus subtilis, with Staphylococcus aureus [1] and in the assay with Pseudomonas aeruginosa was 2.5 mm in each case.
In the case of `Clc1ccc(-n2cc(CNc3ccccc3-c3nnc(-c4ccccc4)o3)nn2)cc1`, the zone of inhibition at 1000 µg/mL in the assay with Escherichia coli, with Bacillus subtilis, in the assay on Staphylococcus aureus [1] and in the assay with Pseudomonas aeruginosa was 2.5 mm each time.
In the case of `Fc1ccccc1-n1cc(CNc2ccccc2-c2nnc(-c3ccccc3)o2)nn1`, the zone of inhibition at 1000 µg/mL in the assay with Escherichia coli, in the assay with Bacillus subtilis, in the assay on Staphylococcus aureus [1] and with Pseudomonas aeruginosa was 2.5 mm in each case.
In the case of `CC(C)C[C@H](NC(=O)CNC(=O)C(C)(C)NC(=O)[C@@H](NC(=O)C(C)(C)NC(=O)[C@H](CCC(N)=O)NC(=O)[C@H](C)NC(=O)C(C)(C)NC(=O)[C@H](C)NC(=O)C(C)(C)NC(=O)[C@@H]1CCN(C(=O)C(C)(C)n2cc(-c3ccccc3)nn2)C1)C(C)C)C(=O)NC(C)(C)C(=O)N1CCC[C@@H]1C(=O)N[C@H](C(=O)NC(C)(C)C(=O)NC(C)(C)C(=O)N[C@@H](CCC(N)=O)C(=O)N[C@@H](CCC(N)=O)C(=O)N[C@H](CO)Cc1ccccc1)C(C)C`, the MIC in the assay with Staphylococcus aureus [2] and against Bacillus cereus was 1.56 µg/mL (≈ 0.761 µM) in each case. The half-inhibitory concentration (IC50) in the assay with KB was 2.9 µg/mL (≈ 1.42 µM).
For `CC(C)C[C@H](NC(=O)CNC(=O)C(C)(C)NC(=O)[C@@H](NC(=O)C(C)(C)NC(=O)[C@H](CCC(N)=O)NC(=O)[C@H](C)NC(=O)C(C)(C)NC(=O)[C@H](C)NC(=O)C(C)(C)NC(=O)[C@@H]1CCN(C(=O)C(C)(C)n2cc(-c3cc(C(F)(F)F)cc(C(F)(F)F)c3)nn2)C1)C(C)C)C(=O)NC(C)(C)C(=O)N1CCC[C@@H]1C(=O)N[C@H](C(=O)NC(C)(C)C(=O)NC(C)(C)C(=O)N[C@@H](CCC(N)=O)C(=O)N[C@@H](CCC(N)=O)C(=O)N[C@H](CO)Cc1ccccc1)C(C)C`, the MIC with Staphylococcus aureus [2] and against Bacillus cereus was 1.56 µg/mL (≈ 0.714 µM) throughout. Also, in the assay on KB, 2.9 µg/mL (≈ 1.33 µM) corresponded to half-maximal inhibition (IC50).
Take `CC(C)C[C@H](NC(=O)CNC(=O)C(C)(C)NC(=O)[C@@H](NC(=O)C(C)(C)NC(=O)[C@H](CCC(N)=O)NC(=O)[C@H](C)NC(=O)C(C)(C)NC(=O)[C@H](C)NC(=O)C(C)(C)NC(=O)[C@@H]1CCN(C(=O)C(C)(C)n2cc(-c3ccc(F)cc3F)nn2)C1)C(C)C)C(=O)NC(C)(C)C(=O)N1CCC[C@@H]1C(=O)N[C@H](C(=O)NC(C)(C)C(=O)NC(C)(C)C(=O)N[C@@H](CCC(N)=O)C(=O)N[C@@H](CCC(N)=O)C(=O)N[C@H](CO)Cc1ccccc1)C(C)C`: the MIC against Staphylococcus aureus [2] and with Bacillus cereus was 1.56 µg/mL (≈ 0.748 µM) in each case. Also, the IC50 in the assay on KB amounted to 2.9 µg/mL (≈ 1.39 µM).
Consider `c1ccc(-c2nnc(-c3ccccc3NCc3cn(-c4ccccc4-c4ccc(-c5nnco5)cc4)nn3)o2)cc1`, for which the zone of inhibition at 1000 µg/mL in the assay with Escherichia coli, in the assay with Bacillus subtilis, with Staphylococcus aureus [1] and in the assay with Pseudomonas aeruginosa was 2.5 mm in each case.
For `CC(C)C[C@H](NC(=O)CNC(=O)C(C)(C)NC(=O)[C@@H](NC(=O)C(C)(C)NC(=O)[C@H](CCC(N)=O)NC(=O)[C@H](C)NC(=O)C(C)(C)NC(=O)[C@H](C)NC(=O)C(C)(C)NC(=O)[C@@H]1CCN(C(=O)C(C)(C)n2cc(-c3ccc(C(F)(F)F)cc3)nn2)C1)C(C)C)C(=O)NC(C)(C)C(=O)N1CCC[C@@H]1C(=O)N[C@H](C(=O)NC(C)(C)C(=O)NC(C)(C)C(=O)N[C@@H](CCC(N)=O)C(=O)N[C@@H](CCC(N)=O)C(=O)N[C@H](CO)Cc1ccccc1)C(C)C`, the minimal inhibitory concentration (MIC) against Staphylococcus aureus [2] and in the assay on Bacillus cereus was 12.5 µg/mL (≈ 5.9 µM) in each case. In the assay on KB, the IC50 was 2.9 µg/mL (≈ 1.37 µM).
For the compound `c1ccc(Cn2cc(CNc3ccccc3-c3nnc(-c4ccccc4)o3)nn2)cc1`, the zone of inhibition at 1000 µg/mL with Escherichia coli, with Bacillus subtilis, in the assay with Staphylococcus aureus [1] and in the assay with Pseudomonas aeruginosa was 2.5 mm each time.
Turning to `CC(C)C[C@H](NC(=O)CNC(=O)C(C)(C)NC(=O)[C@@H](NC(=O)C(C)(C)NC(=O)[C@H](CCC(N)=O)NC(=O)[C@H](C)NC(=O)C(C)(C)NC(=O)[C@H](C)NC(=O)C(C)(C)NC(=O)[C@@H]1CCN(C(=O)C(C)(C)n2cc(-c3cc4ccccc4c4ccccc34)nn2)C1)C(C)C)C(=O)NC(C)(C)C(=O)N1CCC[C@@H]1C(=O)N[C@H](C(=O)NC(C)(C)C(=O)NC(C)(C)C(=O)N[C@@H](CCC(N)=O)C(=O)N[C@@H](CCC(N)=O)C(=O)N[C@H](CO)Cc1ccccc1)C(C)C`, the MIC in the assay on Staphylococcus aureus [2] and against Bacillus cereus was 1.56 µg/mL (≈ 0.726 µM) each time. Also, the half-inhibitory concentration (IC50) in the assay on KB is 2.9 µg/mL (≈ 1.35 µM).
For the compound `COc1ccc(-n2cc(CNc3ccccc3-c3nnc(-c4ccccc4)o3)nn2)c([N+](=O)[O-])c1`, the zone of inhibition at 1000 µg/mL with Escherichia coli, in the assay with Bacillus subtilis, with Staphylococcus aureus [1] and in the assay on Pseudomonas aeruginosa was 2.5 mm each time.
Take `CC1COc2c(N3CCN(C)CC3)c(F)cc3c(=O)c(C(=O)O)cn1c23` (stereo unspecified) [OFLOXACIN]: the zone of inhibition at 1000 µg/mL with Escherichia coli, with Bacillus subtilis, in the assay on Staphylococcus aureus [1] and with Pseudomonas aeruginosa was 2.5 mm in each case.
On to `O=[N+]([O-])c1cccc(-n2cc(CNc3ccccc3-c3nnc(-c4ccccc4)o3)nn2)c1`, for which the zone of inhibition at 1000 µg/mL with Escherichia coli, with Bacillus subtilis, with Staphylococcus aureus [1] and in the assay with Pseudomonas aeruginosa was 2.5 mm throughout.
Consider `CC(C)C[C@H](NC(=O)CNC(=O)C(C)(C)NC(=O)[C@@H](NC(=O)C(C)(C)NC(=O)[C@H](CCC(N)=O)NC(=O)[C@H](C)NC(=O)C(C)(C)NC(=O)[C@H](C)NC(=O)C(C)(C)NC(=O)[C@@H]1CCN(C(=O)C(C)(C)n2cc(-c3ccccc3C(F)(F)F)nn2)C1)C(C)C)C(=O)NC(C)(C)C(=O)N1CCC[C@@H]1C(=O)N[C@H](C(=O)NC(C)(C)C(=O)NC(C)(C)C(=O)N[C@@H](CCC(N)=O)C(=O)N[C@@H](CCC(N)=O)C(=O)N[C@H](CO)Cc1ccccc1)C(C)C`, for which the minimal inhibitory concentration (MIC) in the assay with Staphylococcus aureus [2] and with Bacillus cereus was 1.56 µg/mL (≈ 0.737 µM) each time. The same compound registered an IC50 with KB of 2.9 µg/mL (≈ 1.37 µM).
Take `CC(C)C[C@H](NC(=O)CNC(=O)C(C)(C)NC(=O)[C@@H](NC(=O)C(C)(C)NC(=O)[C@H](CCC(N)=O)NC(=O)[C@H](C)NC(=O)C(C)(C)NC(=O)[C@H](C)NC(=O)C(C)(C)NC(=O)[C@@H]1CCN(C(=O)C(C)(C)n2cc(-c3ccc(OC(F)(F)F)c(F)c3)nn2)C1)C(C)C)C(=O)NC(C)(C)C(=O)N1CCC[C@@H]1C(=O)N[C@H](C(=O)NC(C)(C)C(=O)NC(C)(C)C(=O)N[C@@H](CCC(N)=O)C(=O)N[C@@H](CCC(N)=O)C(=O)N[C@H](CO)Cc1ccccc1)C(C)C`: the minimum inhibitory concentration (MIC) in the assay with Staphylococcus aureus [2] and in the assay on Bacillus cereus was 1.56 µg/mL (≈ 0.725 µM) in each case. This compound had an IC50 in the assay with KB of 2.9 µg/mL (≈ 1.35 µM).
On to `CC(C)C[C@H](NC(=O)CNC(=O)C(C)(C)NC(=O)[C@@H](NC(=O)C(C)(C)NC(=O)[C@H](CCC(N)=O)NC(=O)[C@H](C)NC(=O)C(C)(C)NC(=O)[C@H](C)NC(=O)C(C)(C)NC(=O)[C@@H]1CCN(C(=O)C(C)(C)C(=O)c2ccc(C(F)(F)F)cc2)C1)C(C)C)C(=O)NC(C)(C)C(=O)N1CCC[C@H]1C(=O)N[C@H](C(=O)NC(C)(C)C(=O)NC(C)(C)C(=O)N[C@@H](CCC(N)=O)C(=O)N[C@@H](CCC(N)=O)C(=O)N[C@H](CO)Cc1ccccc1)C(C)C` (X1-[βPro(3R)][Aib]A[Aib]AQ[Aib]V[Aib]GL[Aib]PV[Aib][Aib]QQ[Phe(ol)]), for which the MIC in the assay with Staphylococcus aureus [2] turned out to be 1.56 µg/mL (≈ 0.751 µM); against Bacillus cereus, 12.5 µg/mL (≈ 6.01 µM).
For `CC(C)C[C@H](NC(=O)CNC(=O)C(C)(C)NC(=O)[C@@H](NC(=O)C(C)(C)NC(=O)[C@H](CCC(N)=O)NC(=O)[C@H](C)NC(=O)C(C)(C)NC(=O)[C@H](C)NC(=O)C(C)(C)NC(=O)[C@@H]1CCN(C(=O)C(C)(C)n2cc(-c3cc(F)cc(F)c3)nn2)C1)C(C)C)C(=O)NC(C)(C)C(=O)N1CCC[C@@H]1C(=O)N[C@H](C(=O)NC(C)(C)C(=O)NC(C)(C)C(=O)N[C@@H](CCC(N)=O)C(=O)N[C@@H](CCC(N)=O)C(=O)N[C@H](CO)Cc1ccccc1)C(C)C`, the MIC in the assay on Staphylococcus aureus [2] and in the assay with Bacillus cereus was 1.56 µg/mL (≈ 0.748 µM) in each case. Moreover, in the assay on KB, the IC50 turned out to be 2.9 µg/mL (≈ 1.39 µM).
For the compound `Cc1ccc(-n2cc(CNc3ccccc3-c3nnc(-c4ccccc4)o3)nn2)cc1`, the zone of inhibition at 1000 µg/mL in the assay with Escherichia coli, in the assay on Bacillus subtilis, in the assay with Staphylococcus aureus [1] and with Pseudomonas aeruginosa was 2.5 mm throughout.
